Earlier results, collected in patent US20230243813A1, “METHODS FOR SELECTING AND TREATING CANCER WITH FGFR3 INHIBITORS” (GENECENTRIC THERAPEUTICS, INC., priority 2020, published 2023).
Read-outs that look alike come from different tables or passages of the source.

Test system: bladder cancer cell lines
Conditions: GDSC1/GDSC2 IC50 data, RNA-seq and Affymetrix U219 expression, FAS-1 to FAS-4 scores

sensitivity (IC50) of samples identified as altered by the FAS classifiers	sensitivity (IC50) of samples identified as altered by the FAS classifiers (listed as BIBF)	Structure (SMILES)
high sensitivity	showed samples with sensitivity	COC(=O)c1ccc2c(c1)NC(=O)/C2=C(\Nc1ccc(N(C)C(=O)CN2CCN(C)CC2)cc1)c1ccccc1 [BIBF 1120, nintedanib]
showed samples with sensitivity	–	COc1cc2c(Oc3ccc(NC(=O)C4(C(=O)Nc5ccc(F)cc5)CC4)cc3F)ccnc2cc1OCCCN1CCOCC1 [foretinib, Foretinib]
